Results: PubChem BioAssay AID256 (DTP/NCI, 2004)
Where “and” joins values, the source holds several entries; their conditions need not be identical. Equal entries are not always repeated. Toxic doses and inconclusive results are not listed. The calls were made as follows: active = survival T/C of 150% or more; inactive = T/C below 125% in these data.

System: CD2F1 mice, L1210 leukemia ip, survival T/C
Experiment: NCI In Vivo Anticancer Drug Screen. Data for tumor model L1210 Leukemia (intraperitoneal) in CD2F1 (CDF1) mice
Details: higher = longer survival
Summary of the method: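 Transplantable tumor in mice; compound-treated vs vehicle-treated groups. Read-out = treated/control ratio of the measured endpoint.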

[1] = endpoint: median survival time, dose: 25.0 mg/kg/injection, schedule: Q01DX009 (ip), vehicle: saline with Tween-80
[2] = endpoint: median survival time, dose: 50.0 mg/kg/injection, schedule: Q01DX009 (ip), vehicle: saline with Tween-80
[3] = endpoint: mean survival time, dose: 100.0 mg/kg/injection, schedule: Q04DX002 (ip), vehicle: saline with Tween-80
[4] = endpoint: mean survival time, dose: 200.0 mg/kg/injection, schedule: Q04DX002 (ip), vehicle: saline with Tween-80
[5] = endpoint: mean survival time, dose: 400.0 mg/kg/injection, schedule: Q04DX002 (ip), vehicle: saline with Tween-80
[6] = endpoint: mean survival time, dose: 100.0 mg/kg/injection, schedule: Q04DX003 (ip), vehicle: saline with Tween-80
[7] = endpoint: mean survival time, dose: 200.0 mg/kg/injection, schedule: Q04DX003 (ip), vehicle: saline with Tween-80
[8] = endpoint: mean survival time, dose: 400.0 mg/kg/injection, schedule: Q04DX003 (ip), vehicle: saline with Tween-80
[9] = endpoint: mean survival time, dose: 100.0 mg/kg/injection, schedule: Q01DX009 (ip), vehicle: saline with Tween-80
[10] = endpoint: mean survival time, dose: 200.0 mg/kg/injection, schedule: Q01DX009 (ip), vehicle: saline with Tween-80
[11] = endpoint: mean survival time, dose: 50.0 mg/kg/injection, schedule: Q01DX009 (ip), vehicle: saline with Tween-80
[12] = endpoint: mean survival time, dose: 100.0 mg/kg/injection, schedule: Q01DX001 (ip), vehicle: saline
[13] = endpoint: mean survival time, dose: 200.0 mg/kg/injection, schedule: Q01DX001 (ip), vehicle: saline
[14] = endpoint: mean survival time, dose: 400.0 mg/kg/injection, schedule: Q01DX001 (ip), vehicle: saline

Measured: T/C

CCCC(=O)Nc1ccn(C2OC(COC(=O)CCC)C(OC(=O)CCC)C2OC(=O)CCC)c(=O)n1 (stereo not drawn)
inactive: endpoint: mean survival time, dose: 100.0 mg/kg/injection, schedule: Q01DX009 (ip), vehicle: Klucel (hydroxypropylcellulose) (HPC) 112 % of control | endpoint: mean survival time, dose: 200.0 mg/kg/injection, schedule: Q01DX009 (ip), vehicle: Klucel (hydroxypropylcellulose) (HPC) 114 % of control

CNNC1CCC2C3CCc4cc(O)ccc4C3CCC12C (stereo not drawn)
inactive: endpoint: mean survival time, dose: 12.5 mg/kg/injection, schedule: Q01DX009 (ip), vehicle: Klucel (hydroxypropylcellulose) (HPC) 91 % of control | endpoint: mean survival time, dose: 25.0 mg/kg/injection, schedule: Q01DX009 (ip), vehicle: Klucel (hydroxypropylcellulose) (HPC) 94 % of control | endpoint: mean survival time, dose: 50.0 mg/kg/injection, schedule: Q01DX009 (ip), vehicle: Klucel (hydroxypropylcellulose) (HPC) 91 % of control

CC(O)C1(O)C(O)CC(OC2c3cc4c(c(O)c3[C@@H]3C[C@@]2(C)OC32C=c3cc[nH]c3=N2)C(=O)c2cccc(O)c2C4=O)OC1C (stereo partly drawn)
inactive: endpoint: median survival time, dose: 6.25 mg/kg/injection, schedule: Q01DX009 (ip), vehicle: saline with Tween-80 114 % of control | endpoint: median survival time, dose: 12.5 mg/kg/injection, schedule: Q01DX009 (ip), vehicle: saline with Tween-80 118 % of control | [1] 113 % of control | [2] 97 % of control

O=S(O)O.O=S(O)O.[Co].[NH2-].[NH2-].[NH2-].[NH2-]
inactive: [3] 108 % of control | [4] 108 % of control | [5] 119 % of control

Cc1nc2ccc(CCN3CCN(c4ccccc4Cl)CC3)cc2[nH]1
inactive: endpoint: mean survival time, dose: 50.0 mg/kg/injection, schedule: Q04DX003 (ip), vehicle: Klucel (hydroxypropylcellulose) (HPC) 112 % of control

Cc1ccc(Cl)cc1NS(=O)(=O)c1cccc([N+](=O)[O-])c1
inactive: [6] 98 % of control | [7] 106 % of control | [8] 88 % of control

CN1C2CCC1CNC2
inactive: [6] 103 % of control | [7] 101 % of control | [8] 103 % of control

BrC1C(Br)C2C3C=CC(c4ccccc43)C12 (stereo not drawn)
inactive: [9] 91 % of control | [6] 98 % of control | [10] 94 % of control | [7] 98 % of control | endpoint: mean survival time, dose: 400.0 mg/kg/injection, schedule: Q01DX009 (ip), vehicle: saline with Tween-80 89 % of control | [8] 96 % of control

CCCCCOC(=O)COc1ccc(F)cc1
inactive: [3] 97 % of control | [4] 105 % of control | [5] 101 % of control

Cc1nc2ccc(Cl)c(Cl)c2s1
inactive: [6] 106 % of control | [7] 106 % of control | [8] 104 % of control

CC(NCCN(C)C)C1CCC2C3CCC4CC(O)CCC4(C)C3CCC12C (stereo not drawn)
inactive: endpoint: mean survival time, dose: 12.5 mg/kg/injection, schedule: Q04DX003 (ip), vehicle: saline with Tween-80 101 % of control | endpoint: mean survival time, dose: 25.0 mg/kg/injection, schedule: Q04DX003 (ip), vehicle: saline with Tween-80 95 % of control | endpoint: mean survival time, dose: 50.0 mg/kg/injection, schedule: Q04DX003 (ip), vehicle: saline with Tween-80 101 % of control

Nc1ccn(C2CC3[O][Sn]([c]4ccccc4)([c]4ccccc4)[O]CC3O2)c(=O)n1 (stereo not drawn)
inactive: endpoint: mean survival time, dose: 6.25 mg/kg/injection, schedule: Q01DX005 (ip), vehicle: distilled water + Tween-80 103 % of control | endpoint: mean survival time, dose: 12.5 mg/kg/injection, schedule: Q01DX005 (ip), vehicle: distilled water + Tween-80 93 % of control | endpoint: mean survival time, dose: 25.0 mg/kg/injection, schedule: Q01DX005 (ip), vehicle: distilled water + Tween-80 93 % of control | endpoint: mean survival time, dose: 50.0 mg/kg/injection, schedule: Q01DX005 (ip), vehicle: distilled water + Tween-80 88 % of control

CC(C)(C)[Si](C)(C)N1CCCOP1(=O)N(CCCl)CCCl (stereo not drawn)
inactive: endpoint: mean survival time, dose: 15.6 mg/kg/injection, schedule: Q01DX001 (ip), vehicle: distilled water + Tween-80 98 % of control | endpoint: mean survival time, dose: 31.3 mg/kg/injection, schedule: Q01DX001 (ip), vehicle: distilled water + Tween-80 102 % of control | endpoint: mean survival time, dose: 62.5 mg/kg/injection, schedule: Q01DX001 (ip), vehicle: distilled water + Tween-80 96 % of control | endpoint: mean survival time, dose: 125.0 mg/kg/injection, schedule: Q01DX001 (ip), vehicle: distilled water + Tween-80 108 % of control | endpoint: mean survival time, dose: 250.0 mg/kg/injection, schedule: Q01DX001 (ip), vehicle: distilled water + Tween-80 101 % of control | endpoint: mean survival time, dose: 500.0 mg/kg/injection, schedule: Q01DX001 (ip), vehicle: distilled water + Tween-80 104 % of control

CCC1OC(OC)C=CC1=O (stereo not drawn)
inactive: endpoint: median survival time, dose: 12.5 mg/kg/injection, schedule: Q01DX009 (ip), vehicle: saline 100 % of control | endpoint: median survival time, dose: 25.0 mg/kg/injection, schedule: Q01DX009 (ip), vehicle: saline 102 % of control | endpoint: median survival time, dose: 50.0 mg/kg/injection, schedule: Q01DX009 (ip), vehicle: saline 105 % of control | endpoint: median survival time, dose: 100.0 mg/kg/injection, schedule: Q01DX009 (ip), vehicle: saline 102 % of control

CN(C)C(=O)Sc1ccc(S(=O)(=O)F)c(Cl)c1Cl
inactive: [3] 100 % of control | [4] 100 % of control | [5] 103 % of control

COc1cc(Cl)ccc1NC(=O)Oc1ccc(Br)cc1
inactive: [11] 92 % of control | [9] 96 % of control | [10] 87 % of control

CC(C)CC(NC(=O)c1ccccc1)C(N)=O (stereo not drawn)
inactive: [6] 101 % of control | [7] 97 % of control | [8] 92 % of control

COc1cc(Cl)ccc1NC(=O)Nc1ccccc1C
inactive: endpoint: mean survival time, dose: 25.0 mg/kg/injection, schedule: Q04DX002 (ip), vehicle: saline with Tween-80 90 % of control | endpoint: mean survival time, dose: 50.0 mg/kg/injection, schedule: Q04DX002 (ip), vehicle: saline with Tween-80 94 % of control | [3] 94 % of control | [4] 90 % of control | [5] 90 % of control

Cc1cccc(CC(C)O)n1 (stereo not drawn)
inactive: [12] 96 % of control | [3] 97 % of control | endpoint: mean survival time, dose: 100.0 mg/kg/injection, schedule: Q04DX002 (ip), vehicle: saline 93 % of control | [6] 96 % of control and 97 % of control | [13] 94 % of control | [4] 106 % of control | endpoint: mean survival time, dose: 200.0 mg/kg/injection, schedule: Q04DX002 (ip), vehicle: saline 96 % of control | [7] 86 % of control and 112 % of control | [14] 98 % of control | [5] 93 % of control | endpoint: mean survival time, dose: 400.0 mg/kg/injection, schedule: Q04DX002 (ip), vehicle: saline 93 % of control | [8] 97 % of control and 106 % of control

CN(C)C(=O)Nc1cc(Cl)ccc1Cl
inactive: [3] 97 % of control | [4] 108 % of control | [5] 120 % of control

Cc1cc2c(C(C)C)c(O)c(O)c(C=NCCO)c2c(O)c1-c1c(C)cc2c(C(C)C)c(O)c(O)c(C=NCCO)c2c1O
inactive: [1] 105 % of control | [2] 97 % of control | endpoint: median survival time, dose: 100.0 mg/kg/injection, schedule: Q01DX009 (ip), vehicle: saline with Tween-80 101 % of control | endpoint: median survival time, dose: 200.0 mg/kg/injection, schedule: Q01DX009 (ip), vehicle: saline with Tween-80 104 % of control | endpoint: median survival time, dose: 400.0 mg/kg/injection, schedule: Q01DX009 (ip), vehicle: saline with Tween-80 89 % of control

Cc1cc(=O)[nH]c2ccccc12
inactive: [11] 96 % of control | [12] 98 % of control | [9] 96 % of control | [13] 98 % of control | [10] 103 % of control | [14] 102 % of control

COC(=O)CC/C=C\Cc1c(OC)c(C)c2c(c1OC=O)C(=O)OC2
inactive: [3] 108 % of control | [4] 108 % of control | endpoint: median survival time, dose: 100.0 mg/kg/injection, schedule: Q04DX002 (ip), vehicle: saline with Tween-80 112 % of control | endpoint: median survival time, dose: 200.0 mg/kg/injection, schedule: Q04DX002 (ip), vehicle: saline with Tween-80 112 % of control

CN(C)c1ccc(/C=N/NC(=O)COc2ccccc2)cc1
inactive: [9] 91 % of control | [10] 89 % of control

CCCC(=O)Nc1ncnc2c1[nH]c(=O)n2C1OC2COP(=O)(O)OC2C1OC(=O)CCC (stereo not drawn)
inactive: endpoint: mean survival time, dose: 6.25 mg/kg/injection, schedule: Q01DX005 (ip), vehicle: water 97 % of control | endpoint: mean survival time, dose: 12.5 mg/kg/injection, schedule: Q01DX005 (ip), vehicle: water 93 % of control | endpoint: mean survival time, dose: 25.0 mg/kg/injection, schedule: Q01DX005 (ip), vehicle: water 97 % of control | endpoint: mean survival time, dose: 50.0 mg/kg/injection, schedule: Q01DX005 (ip), vehicle: water 97 % of control | endpoint: mean survival time, dose: 100.0 mg/kg/injection, schedule: Q01DX005 (ip), vehicle: water 89 % of control

CN(C)[C@@H]1C(=O)C(C(=O)NCNC(CO)(CO)CO)=C(O)[C@@]2(O)C(=O)C3=C(O)c4c(O)cccc4[C@@](C)(O)[C@H]3C[C@@H]12
inactive: endpoint: mean survival time, dose: 200.0 mg/kg/injection, schedule: Q01DX009 (ip), vehicle: saline 93 % of control | endpoint: mean survival time, dose: 264.0 mg/kg/injection, schedule: Q01DX009 (ip), vehicle: acetone 97 % of control | endpoint: mean survival time, dose: 300.0 mg/kg/injection, schedule: Q01DX009 (ip), vehicle: saline 98 % of control | endpoint: mean survival time, dose: 400.0 mg/kg/injection, schedule: Q01DX009 (ip), vehicle: acetone 92 % of control
